Our source for the IC50 values is patent US9951056B2, “Substituted nicotinamide inhibitors of BTK and their preparation and use in the treatment of cancer, inflammation and autoimmune disease” (BEIJING INNOCARE PHARMA TECH CO., LTD., priority 2013, dated 2018).

pIC50: −log10 of the molar value.

In the assay the target is BTK (Homo sapiens (Human), UniProt Q06187). Description: ADP-Glo kinase biochemical assay, IC50 determination of BTK inhibitors. The note with it: ADP-Glo, ATP 50 uM; values given as bins. On the procedure: Biological Properties: IC50 Determination of BTK Inhibitors in ADP-Glo Kinase Biochemical Assay
Sequence of BTK (Q06187 whole entry): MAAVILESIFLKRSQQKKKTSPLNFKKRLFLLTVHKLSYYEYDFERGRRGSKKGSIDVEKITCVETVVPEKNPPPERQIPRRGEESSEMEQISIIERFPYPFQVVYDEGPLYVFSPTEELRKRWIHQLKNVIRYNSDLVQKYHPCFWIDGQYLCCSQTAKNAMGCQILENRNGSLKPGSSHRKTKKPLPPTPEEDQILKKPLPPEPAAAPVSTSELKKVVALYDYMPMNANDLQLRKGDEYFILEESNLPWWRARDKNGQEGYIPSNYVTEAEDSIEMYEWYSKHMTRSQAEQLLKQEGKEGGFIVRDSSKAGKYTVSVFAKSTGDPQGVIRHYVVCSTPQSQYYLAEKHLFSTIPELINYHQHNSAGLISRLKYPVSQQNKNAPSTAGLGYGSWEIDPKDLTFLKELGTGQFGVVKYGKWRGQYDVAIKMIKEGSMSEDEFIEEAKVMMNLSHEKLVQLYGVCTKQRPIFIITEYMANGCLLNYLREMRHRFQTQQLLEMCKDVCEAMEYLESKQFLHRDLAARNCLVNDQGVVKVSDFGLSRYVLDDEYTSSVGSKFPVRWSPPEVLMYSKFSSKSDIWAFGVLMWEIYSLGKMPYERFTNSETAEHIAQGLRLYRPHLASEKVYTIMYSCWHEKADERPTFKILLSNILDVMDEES
Those skilled in the art will appreciate that a variety of assay formats may be used to determine the activity of the compounds described herein.
ADP-Glo™ Kinase Assay (Cat. V9102, 10000 Tests), Components: • 1×50 ml ADP-Glo™ Reagent, • 1×100 ml Kinase Detection Buffer, • 1× Kinase Detection Substrate (Lyophilized), • 1×5 ml Ultra Pure ATP, 10 mM • 1×5 ml ADP, 10 mM
• Enzyme concentration: 8 ng/5 ul. • ATP concentration: 50 uM • Substrate (peptide) concentration: 0.2 mg/ml. • Reaction buffer composition: 40 mM Tris-HCl pH7.5, 10 mM MgCl2, 2 mM MnCl2, 0.1 mg/mL BSA, 0.05 mM DTT. • Test compound concentration: DMSO≤0.5%. Methods: Compound Dosage Gradient Solution Preparation: […]
1× and 2× assay buffer were made at first. BTK kinase was diluted with 1× assay buffer but substrate was diluted with 2× assay buffer. 1 ul of diluted compound was transferred into 384-well assay plate, and then 2.0 ul of enzyme solution was added, and spun at 2000 rpm for 1 min. This mixture was incubated at 24° C. for 30 mins. 2 ul of peptide substrate/ATP mixture was added into the assay plate to start the reaction. The mixture was mixed thoroughly and then the 384-well plate was spun and incubated at 24° C. for 60 mins. 5.0 ul of ADP-Glo Reagent was added to stop the kinase activity and deplete the ATP unconsumed, and the plate was mixed thoroughly and incubated at 24° C. for 40 min. Then, 10.0 ul of Kinase Detection reagent was added, and the plate was centrifuged and then kept at 24° C. for 30 min. The luminescence signal was read on Envision.
IC50 values of compounds were calculated from a 4-parameter fit using Equation (2): Y=Bottom+(TOP-Bottom)/(1+((C/X)^hillslope)) Equation (2)
In Equation 2, Y represents % inhibition, X is the log value of the test compound concentration. IC50 was the concentration of compound where half of maximal inhibition was achieved.
All data was analyzed with IDBS XLfit5 software (ID Business Solutions Ltd., UK).
For orientation: pIC50 means −log10 of the IC50, conventionally taken in molar units. As to `C=CC(=O)N1CC[C@H](n2cc(C(N)=O)c(-c3ccc(Oc4ccccc4)cc3)n2)C1` [Example 19, (S)-1-(1-acryloylpyrrolidin-3-yl)-3-(4-phenoxyphenyl)-1H-pyrazole-4-carboxamide], the pIC50 was over 6.30.

Regarding `C=CC(=O)N1CCN(c2ccc(C(=O)O)c(-c3ccc(Oc4ccccc4)cc3)n2)CC1` [Example 26, 6-(4-acryloylpiperazin-1-yl)-2-(4-phenoxyphenyl)pyridine-3-carboxylic acid], the pIC50 is over 6.30.

Compound `C=CC(=O)N1CCC(c2nc(-c3ccc(Oc4ccccc4)cc3)c(C(N)=O)s2)CC1` [Example 52, 2-(1-acryloylpiperidin-4-yl)-4-(4-phenoxyphenyl)thiazole-5-carboxamide] showed a pIC50 of over 6.30.

`C=CC(=O)N1CCN(c2ccc(C(N)=O)c(-c3ccc(Oc4cccc(F)c4)cc3)n2)CC1` [Example 35, 6-(4-acryloylpiperazin-1-yl)-2-(4-(3-fluorophenoxy)phenyl)nicotinamide] showed a pIC50 of over 6.30.

Compound `C=CC(=O)N1CCCC(c2ccc(C(N)=O)c(-c3ccc(Oc4ccccc4)cc3)n2)C1` (stereo not shown) [Example 8, 6-(1-acryloylpiperidin-3-yl)-2-(4-phenoxyphenyl)nicotnamide] had a pIC50 of over 6.30.

Turning to `C/C=C(\C#N)C(=O)N1CC(n2cc(C(N)=O)c(-c3ccc(Oc4ccccc4)cc3)n2)C1` [Example 59, (E)-1-(1-(2-cyanobut-2-enoyl)azetidin-3-yl)-3-(4-phenoxyphenyl)-1H-pyrazole-4-carboxamide], the pIC50 is over 6.30.

The compound `C=CC(=O)N1CCC(c2ccc(C#N)c(-c3ccc(Oc4ccccc4)cc3)n2)CC1` [Example 24, 6-(1-acryloylpiperidin-4-yl)-2-(4-phenoxyphenyl)pyridine-3-carbonitrile] had a negative logarithm of the IC50 (pIC50) of 6.00 to 6.30.

`NC(=O)c1cn(C2CNC2)nc1-c1ccc(Oc2ccccc2)cc1` [Example 14, 1-(azetidin-3-yl)-3-(4-phenoxyphenyl)-1H-pyrazole-4-carboxamide]: the pIC50 was at most 6.00.

Turning to `C=CC(=O)N1CCC(c2nc(C(N)=O)c(-c3ccc(Oc4ccccc4)cc3)o2)C1` (stereo not shown) [Example 48, 2-(1-acryloylpyrrolidin-3-yl)-5-(4-phenoxyphenyl)oxazole-4-carboxamide], the negative logarithm of the IC50 (pIC50) was over 6.30.

`C=CC(=O)N1CCCC(c2nc(-c3ccc(Oc4ccccc4)cc3)c(C(N)=O)s2)C1` (stereo not shown) [Example 40, 2-(1-acryloylpiperidin-3-yl)-4-(4-phenoxyphenyl)thiazole-5-carboxamide] gave a pIC50 of over 6.30.

On to `C=CC(=O)N1CCC(c2ccc(C(N)=O)c(-c3ccc(Oc4ccccc4)cc3)n2)C1` (stereo not shown) [Example 23, 6-(1-acryloylpyrrolidin-3-yl)-2-(4-phenoxyphenyl)pyridine-3-carboxamide], for which the pIC50 was over 6.30.

`C=CC(=O)N1CCN(c2ccc(C(N)=O)c(-c3ccc(Oc4ccc(F)cc4)cc3)n2)CC1` [Example 37, 6-(4-acryloylpiperazin-1-yl)-2-(4-(4-fluorophenoxy)phenyl)nicotinamide] showed a pIC50 of over 6.30.

Compound `C=CC(=O)N1CCN(c2ccc(C(N)=O)c(-c3ccc(Oc4ccccc4)cc3F)n2)CC1` [Example 39, 6-(4-acryloylpiperazin-1-yl)-2-(2-fluoro-4-phenoxyphenyl)nicotinamide] showed a pIC50 of over 6.30.

For the compound `C=CC(=O)N1CCCC(c2nc(C(N)=O)c(-c3ccc(Oc4ccccc4)cc3)o2)C1` (stereo not shown) [Example 54, 2-(1-acryloylpiperidin-3-yl)-5-(4-phenoxyphenyl)oxazole-4-carboxamide], the pIC50 is over 6.30.

In the case of `CN(C)C/C=C/C(=O)N1CCC(n2cc(C(N)=O)c(-c3ccc(Oc4ccccc4)cc3)n2)C1` (stereo not shown) [Example 34, 1-(1-(4-(dimethylamino)but-2-enoyl)pyrrolidin-3-yl)-3-(4-phenoxyphenyl)-1H-pyrazole-4-carboxamide], the pIC50 was over 6.30.

Compound `C=CC(=O)N1CCCC(c2nc(-c3ccc(Oc4ccccc4)cc3)c(C(N)=O)o2)C1` (stereo not shown) [Example 42, 2-(1-acryloylpiperidin-3-yl)-4-(4-phenoxyphenyl)oxazole-5-carboxamide] gave a pIC50 of over 6.30.
